Measurements reported in patent publication US9745384B2, “Peptides useful for modulating histone demethylase function” (The Brigham and Women's Hospital, Inc., priority 2012, dated 2017).
One block for each molecule: values may come before it. Ends that are not written are not given here.

Assays:
[1] = molecular target: T1, NPAC214-225.WT (Homo sapiens, UniProt Q49A26); assay: ITC binding between H3K4M peptide and wild-type NPAC peptide alone; conditions: FIG. 6H
T1 construct: wild-type or mutant NPAC peptides (residues 214-225); made in house; host or cells: chemical synthesis

[2] = molecular target: T2, His-LSD2 (Homo sapiens, UniProt Q8NB78); assay: Nucleosome demethylation assay (NPAC cofactor activity for LSD2, immunoblot); type: biochemical; conditions: for Cofactor activity: stimulation of LSD2 demethylation of nucleosomal H3K4me2: threshold dosage of His-LSD2, nucleosomes purified from HeLa
T2 construct: typically 0.5 μg full-length His-LSD2; made in house; host or cells: Sf9 insect cells
T2 sequence (Q8NB78 1-822): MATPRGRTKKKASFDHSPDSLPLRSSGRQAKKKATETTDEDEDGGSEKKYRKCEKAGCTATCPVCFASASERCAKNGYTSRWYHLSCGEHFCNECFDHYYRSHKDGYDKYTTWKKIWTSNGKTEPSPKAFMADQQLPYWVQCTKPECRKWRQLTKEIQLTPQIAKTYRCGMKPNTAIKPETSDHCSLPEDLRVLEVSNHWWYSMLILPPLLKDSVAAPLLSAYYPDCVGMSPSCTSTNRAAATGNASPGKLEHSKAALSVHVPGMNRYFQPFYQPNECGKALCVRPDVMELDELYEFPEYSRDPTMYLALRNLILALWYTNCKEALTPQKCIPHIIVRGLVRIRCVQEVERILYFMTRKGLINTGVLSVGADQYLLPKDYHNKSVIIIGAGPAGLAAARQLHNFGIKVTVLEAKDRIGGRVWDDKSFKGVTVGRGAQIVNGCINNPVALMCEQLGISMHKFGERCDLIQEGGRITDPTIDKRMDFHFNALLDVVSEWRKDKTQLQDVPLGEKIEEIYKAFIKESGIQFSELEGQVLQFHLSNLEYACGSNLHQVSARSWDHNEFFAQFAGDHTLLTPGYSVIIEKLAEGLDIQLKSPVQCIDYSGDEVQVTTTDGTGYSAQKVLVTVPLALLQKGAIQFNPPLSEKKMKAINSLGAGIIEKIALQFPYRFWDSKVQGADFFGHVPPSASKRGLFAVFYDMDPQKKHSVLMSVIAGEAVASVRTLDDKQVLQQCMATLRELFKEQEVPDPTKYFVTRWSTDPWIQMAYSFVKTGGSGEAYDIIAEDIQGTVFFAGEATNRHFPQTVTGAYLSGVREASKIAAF
Description: For nucleosome demethylation assays, typically 0.5 μg full-length His-LSD2, 1 μg NPAC protein or peptides, and 2 μg nucleosomes purified from HeLa were used, and demethylation efficiency was analyzed by SDS-PAGE electrophoresis and immunoblot using methylation specific anti-histone H3 antibodies as previously described (Shi et al. 2004).

[3] = molecular target: T3, LSD2 (Homo sapiens, UniProt Q8NB78); assay: H3K4me2 peptide demethylation assay (MALDI-TOF); type: biochemical; conditions: H3K4me2 peptide residues 1-21
T3 construct: 0.15 μM or 1.2 μM purified LSD2 (residues 51-822); His6 (cleaved yes); made in house; host or cells: Sf9 insect cells (baculovirus)
T3 sequence (Q8NB78 51-822): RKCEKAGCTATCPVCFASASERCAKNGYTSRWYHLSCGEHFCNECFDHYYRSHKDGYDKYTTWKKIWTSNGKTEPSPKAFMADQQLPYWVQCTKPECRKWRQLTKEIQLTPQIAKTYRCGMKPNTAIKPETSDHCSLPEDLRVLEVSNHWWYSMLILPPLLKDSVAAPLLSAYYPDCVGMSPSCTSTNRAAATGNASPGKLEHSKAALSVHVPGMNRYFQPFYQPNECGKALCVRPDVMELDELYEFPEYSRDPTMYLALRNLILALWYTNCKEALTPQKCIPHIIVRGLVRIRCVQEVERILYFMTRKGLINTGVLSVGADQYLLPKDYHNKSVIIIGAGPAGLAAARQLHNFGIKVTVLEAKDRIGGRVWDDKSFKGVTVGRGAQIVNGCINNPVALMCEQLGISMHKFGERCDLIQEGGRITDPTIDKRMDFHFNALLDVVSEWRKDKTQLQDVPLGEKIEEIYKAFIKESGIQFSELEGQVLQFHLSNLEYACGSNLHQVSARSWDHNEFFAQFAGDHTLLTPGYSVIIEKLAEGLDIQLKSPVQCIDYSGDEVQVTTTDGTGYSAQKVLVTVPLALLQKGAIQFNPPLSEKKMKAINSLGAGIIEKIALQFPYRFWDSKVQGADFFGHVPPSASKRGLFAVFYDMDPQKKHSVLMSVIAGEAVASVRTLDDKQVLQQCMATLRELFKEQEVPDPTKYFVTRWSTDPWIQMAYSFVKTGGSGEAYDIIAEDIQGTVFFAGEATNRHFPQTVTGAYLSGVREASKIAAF
Description: FIGS. 12A-12F depict analysis of LSD2 demethylation activity and mutational analysis. […] Demethylation products were analyzed by MALDI-TOF mass spectrometry. 0.15 μM LSD2 can efficiently demethylate the longer H3K4me2 peptide (1-21), but has no detectable activity on the shorter histone peptide (1-15), demethylation of which requires high concentration (1.2 μM) of LSD2. […] It indicates the importance of histone residue 16-21 to LSD2 enzymatic activity and NPAC cofactor activity, supporting our model that NPAC assists enzyme-substrate interactions by creating a new binding site for H3 L20 in the LSD2-NPAC complex. FIG. 12C depicts LSD2 demethylation and NPAC cofactor activity on longer H3K4me2 peptide (1-44). 2 μg H3K4me2 peptide (1-44) were incubated with 0.8 μg GST-LSD2 (1-822) and 2 μg wild-type or F217A full-length GST-NPAC proteins in 100 μl demethylation buffer (50 mM Tris-HCl pH 8.1, 1 mM NAD^+, 0.1 Unit formaldehyde dehydrogenase) at 30° C. for 2 hours. LSD2 alone can efficiently demethylate di-methyl H3K4 of the long peptides, converting large majority of the substrate to H3K4me1. Wild-type NPAC protein can efficiently stimulate LSD2 demethylation, producing unmethylated H3K4. F217A mutation impairs NPAC cofactor activity as expected, showing little stimulatory effect if any. To compare demethylation efficiency, 1.2 μg bio-H3K4me2 peptide (H3 residue 1-21, equal molar ratio to 2 ug H3K4me2 1-44 peptide in above assays) was demethylated by LSD2 under identical conditions (bottom panel). […] The cofactor activity of wild-type NPAC was readily detected under the same conditions. […] Importantly, the demethylation of nucleosomal H3K4me2 was much more efficient in the presence of wild-type NPAC under same conditions (comparing lane 3 verse 4, and 8 verse 9). It is noted that no obvious cofactor effect of F217A peptide or linker regions was detected in nucleosome and peptide demethylation assays (FIG. 6E and data not shown). FIG. 12F depicts Coomassie staining of NPAC proteins used in histone demethylase assays. FIG. 12F discloses “His6” as SEQ ID NO: 75.
Histone peptides are purchased from Millipore, or custom synthesized. The purity of all peptides are >95% as determined by HPLC and mass spectrometry. In vitro histone demethylase activity assays were performed as described (Shi et al., 2004). Briefly, purified LSD2 and NPAC derived peptides or proteins were incubated with 50 μM H3K4me2 peptides (residues 1-21) in 50 mM Tris-HCl, pH 8.5, 50 mM KCl, 5 mM MgCl2, 5% glycerol at 37° C. for 30 min. The products were desalted through a C18 Ziptip (Millipore) and analyzed on a MALDI-TOF micro MX mass spectrometer (ABI 4700, Applied Biosystems). The laser intensity was kept constant for all of the samples. All MS data were processed using Data Explorer 4.5 (Applied Biosystems). […]

[4] = molecular target: T4, LSD2 (residues 51-822) (Homo sapiens, UniProt Q8NB78); assay: ITC binding of wild-type and mutant NPAC peptides (residues 214-225) with LSD2; conditions: 15 °C; 3 mM NPAC peptide injected into 0.2 mM LSD2
T4 construct: Human LSD2 (residues 51-822) was subcloned into a pFastBacl derivative; His6 (cleaved yes); made in house; host or cells: Sf9 insect cells (baculovirus)
T4 sequence (Q8NB78 51-822): T3 sequence (Q8NB78 51-822)
Description: (§1) All proteins and peptides were prepared in 10 mM HEPES, pH 8.0, and 0.1 M NaCl. The data were fitted by software Origin 7.0.

[5] = molecular target: T5, LSD2 and NPAC.214-225.F217A (Homo sapiens, UniProt Q8NB78); assay: ITC binding of H3K4M peptide with LSD2 in complex with F217A NPAC peptide; conditions: FIG. 6H
T5 construct: containing 0.029 mM LSD2 (residues 51-822) or LSD2-NPAC complex; His6 (cleaved yes); made in house; host or cells: LSD2: Sf9 insect cells; NPAC peptide: chemical synthesis
Description: as §1

[6] = molecular target: T6, LSD2 (Homo sapiens, UniProt Q8NB78); assay: H3K4me2 peptide demethylation assay (MALDI-TOF); type: biochemical; parameters: 0.15 μM or 1.2 μM purified LSD2 (residues 51-822); His6 (cleaved yes); made in house; host or cells: Sf9 insect cells (baculovirus); conditions: longer H3K4me2 peptide residues 1-44
T6 sequence (Q8NB78 1-822): T2 sequence (Q8NB78 1-822)
Description: FIGS. 12A-12F depict analysis of LSD2 demethylation activity and mutational analysis. […] Demethylation products were analyzed by MALDI-TOF mass spectrometry. 0.15 μM LSD2 can efficiently demethylate the longer H3K4me2 peptide (1-21), but has no detectable activity on the shorter histone peptide (1-15), demethylation of which requires high concentration (1.2 μM) of LSD2. […] It indicates the importance of histone residue 16-21 to LSD2 enzymatic activity and NPAC cofactor activity, supporting our model that NPAC assists enzyme-substrate interactions by creating a new binding site for H3 L20 in the LSD2-NPAC complex. FIG. 12C depicts LSD2 demethylation and NPAC cofactor activity on longer H3K4me2 peptide (1-44). […] The cofactor activity of wild-type NPAC was readily detected under the same conditions. […] It is noted that no obvious cofactor effect of F217A peptide or linker regions was detected in nucleosome and peptide demethylation assays (FIG. 6E and data not shown). […]
Histone peptides are purchased from Millipore, or custom synthesized. The purity of all peptides are >95% as determined by HPLC and mass spectrometry. […] The products were desalted through a C18 Ziptip (Millipore) and analyzed on a MALDI-TOF micro MX mass spectrometer (ABI 4700, Applied Biosystems). […]

[7] = molecular target: LSD1 (Homo sapiens, UniProt O60341); assay: LSD1-mediated nucleosome demethylation assay; type: biochemical; conditions: 2 μg LSD1 with 5 μg cofactor protein
Description: FIG. 7A depicts the determination of the threshold dosage of purified LSD2 required for nucleosomal H3K4 demethylation. 2 μg of nucleosomes purified from HeLa were incubated with various amount of His-LSD2 proteins for 2 hours at 30° C. The demethylation reactions were analyzed by immunoblotting using indicated antibodies. […] 2 μg LSD1 in combination with 5 μg purified NPAC or CoREST protein was used for histone demethylase assays. […] Transfected cells are marked by arrows; cells shown significant reduction of H3K4me1 are marked by dotted circles. […] In contrast, coexpression of LSD2 and NPAC induces obvious global decrease of H3K4me1. […] FIG. 7D depicts immunofluorescence analyses of H3K9me2 demethylation in cells coexpressing LSD2 and full-length NPAC.

Cofactor activity: stimulation of LSD2 demethylation of H3K4me2 peptide [6]: very weak or undetectable
Cofactor activity on nucleosomes when more NPAC and LSD2 proteins were used ([2]; more NPAC and LSD2 than threshold assay (FIG. 12E)): residual stimulatory activity
Cofactor activity: stimulation of LSD2 demethylation of nucleosomal H3K4me2 [2]: didn't detect cofactor activity
B1: full-length NPAC F217A protein: full-length NPAC protein with F217A mutation (protein, UniProt Q49A26 1-553, looked up, variant F217A)
chain: MAAVSLRLGDLVWGKLGRYPPWPGKIVNPPKDLKKPRGKKCFFVKFFGTEDHAWIKVEQLKPYHAHKEEMIKINKGKRFQQAVDAVEEFLRRAKGKDQTSSHNSSDDKNRRNSSEERSRPNSGDEKRKLSLSEGKVKKNMGEGKKRVSSGSSERGSKSPLKRAQEQSPRKRGRPPKDEKDLTIPESSTVKGMMAGPMAAFKWQPTASEPVKDADPHAHHFLLSQTEKPAVCYQAITKKLKICEEETGSTSIQAADSTAVNGSITPTDKKIGFLGLGLMGSGIVSNLLKMGHTVTVWNRTAEKCDLFIQEGARLGRTPAEVVSTCDITFACVSDPKAAKDLVLGPSGVLQGIRPGKCYVDMSTVDADTVTELAQVIVSRGGRFLEAPVSGNQQLSNDGMLVILAAGDRGLYEDCSSCFQAMGKTSFFLGEVGNAAKMMLIVNMVQGSFMATIAEGLTLAQVTGQSQQTLLDILNQGQLASIFLDQKCQNILQGNFKPDFYLKYIQKDLRLAIALGDAVNHPTPMAAAANEVYKRAKALDQSDNDMSAVYRAYIH
modifications: full-length
notes: full-length NPAC protein with F217A mutation

Cofactor activity: stimulation of LSD2 demethylation of H3K4me2 peptide [3]: strong cofactor activity for LSD2
B2: linker region of NPAC: NPAC linker region, residues 152-252 or 152-268 (protein)
chain: SERGSKSPLKRAQEQSPRKRGRPPKDEKDLTIPESSTVKGMMAGPMAAFKWQPTASEPVKDADPHFHHFLLSQTEKPAVCYQAITKKLKICEEETGSTSIQ
modifications: left off: a dimerising Fc or GST
Stimulation of LSD1 nucleosome demethylation [7]: failed to stimulate LSD1 demethylation of nucleosomes

Second part, the molecule before the results:

Molecule: DPHFHHFLLSQT [NPAC.214-225.WT]
Affinity of NPAC peptide to H3K4M peptide [1]: no appreciable affinity to H3K4M peptide
Cofactor activity: stimulation of LSD2 demethylation of nucleosomal H3K4me2 [2]: sufficient to enhance LSD2 activity in nucleosome demethylation assays
Cofactor activity: stimulation of LSD2 demethylation of H3K4me2 peptide [3]: can stimulate LSD2-mediated demethylation of H3K4me2 peptides
Binding ratio [4]: 1.06 ± 0.01
Kd [4]: 920 ± 80 nM
Δ H [4]: -8482 ± 121 cal/mol
Δ S [4]: −1.82 cal/mol/deg

Molecule: DPHAHHFLLSQT [NPAC.214-225.M6]
Cofactor activity: stimulation of LSD2 demethylation of nucleosomal H3K4me2 [2]: abolishes cofactor activity
Cofactor activity: stimulation of LSD2 demethylation of H3K4me2 peptide [3]: but not the F217A mutant, can stimulate LSD2-mediated demethylation of H3K4me2 peptides
Ability of NPAC peptide to stabilize the LSD2-H3K4M peptide interaction [5]: significantly diminishes the ability of NPAC to stabilize the interaction between LSD2 and the H3K4M peptide
Binding ratio [4]: 1.10 ± 0.01
Kd [4]: 930 ± 70 nM
Δ H [4]: -8182 ± 97 cal/mol
Δ S [4]: −0.783 cal/mol/deg
